Measurements as given in patent publication US20260335265A1, “ANTICANCER COMPOSITION COMPRISING MALATE METAL SALT” (BIOSOLYX, priority 2022, published 2026).

Assays:
[1] = tested on: Malate dehydrogenase 2 (MDH2); test: Malate dehydrogenase 2 (MDH2) level by ELISA in treated cancer cells; assay type: cell-based
Description: (§1) 1×10^6 liver cancer (HepG2), breast cancer (MDA-MB-231), or lung cancer (H1975) cells were treated with calcium malate (CaMal) of 5 mM, calcium dimalate (CaMal2) of 2.5 mM, or calcium malate-dichloroacetic acid (CaMal-DCA) of 1 mM for 48 hours, respectively. After that, proteins were then extracted using RIPA buffer. Biorbyt's Malate dehydrogenase 2 (MDH2), Malic enzyme 2 (ME2) and Malic enzyme 3 (ME3) ELISA assay kits were utilized to quantitatively analyze the respective factors in the above extracted proteins.

[2] = tested on: Malic enzyme 2 (ME2); test: Malic enzyme 2 (ME2) level by ELISA in treated cancer cells; assay type: cell-based
Description: as §1

[3] = tested on: Malic enzyme 3 (ME3); test: Malic enzyme 3 (ME3) level by ELISA in treated cancer cells; assay type: cell-based
Description: as §1

[4] = tested on: NAD^+ in liver cancer (HepG2), breast cancer (MDA-MB-231), or lung cancer (H1975) cells; test: NAD^+ levels in treated cancer cells (NAD^+ assay kit); assay type: cell-based; conditions: HepG2, MDA-MB-231, H1975 cells, CaMal 5 mM, CaMal2 2.5 mM, CaMal-DCA 1 mM, 48 hours, vs untreated controls, p<0.001 (FIG. 2)
Description: 1×10^6 liver cancer (HepG2), breast cancer (MDA-MB-231), or lung cancer (H 1975) cells were treated with CaMal of 5 mM, CaMal2 of 2.5 mM, or CaMal-DCA of 1 mM for 48 hours, respectively. Then, NAD^+ levels were then analyzed according to the method of Abcam's NAD^+ assay kit.

[5] = tested on: beta cells; test: Insulin levels in culture medium of pancreatic beta cells; assay type: cell-based; conditions: CaMal 5 mM or CaMal2 2.5 mM, 48 hours
Description: 1×10^6 beta cells were treated with CaMal of 5 mM or CaMal2 of 2.5 mM for 48 hours in the absence or presence of glucose of 5 mM, respectively, and a culture medium was harvested. The medium was placed in a spin concentrator (Corning, Inc.) and run at 7,500 g for 10 minutes to obtain insulin assay samples. The samples were quantitatively analyzed using an assay kit manufactured by Enzo company.

[6] = tested on: brain cancer (U-87MG) cells; test: Cancer cell survival rate (MTT reagent, absorbance); assay type: cell-based; conditions: 0.5, 1, 2.5, or 5 mM, 96 hours, p<0.001 vs 0.5, 1, and 2.5 mM groups (FIG. 4)
Description: (§2) 3×10^3 colon cancer (HCT-116) or brain cancer (U-87MG) cells were incubated for 24 hours and then treated with CaMal of 0.5, 1, 2.5, or 5 mM and incubated for another 96 hours. Then, 3-(4,5-dimethylthiazol-2-yl)-2,5-diphenyltetrazolium bromide reagent of 10 μl was added to each well and reacted for 1 hour. After removing the reagent at the end of the reaction, DMSO of 200 μl was added to each well and then the absorbance was measured to confirm a survival rate of the cells.

[7] = tested on: colon cancer (HCT-116) cells; test: as above; assay type: cell-based; conditions: 0.5, 1, 2.5, or 5 mM, 96 hours, p<0.001 vs 0.5, 1, and 2.5 mM groups (FIG. 4)
Description: as §2

[8] = tested on: pancreatic cancer (Aspc-1) cells; test: Tumor growth inhibition in pancreatic cancer xenograft mice; assay type: in vivo, Athymic Balb/c nude mice; conditions: 20 mg/kg subcutaneously twice a week; 30 days; vs untreated controls; p<0.001 (FIG. 10)
Description: 1×10^7 pancreatic cancer (Aspc-1) cells were implanted with Athymic Balb/c nude mice and when they grew to approximately 200 mm^3, CaMal of 20 mg/kg was administered subcutaneously twice a week to monitor tumor growth for 30 days.

[9] = tested on: cancer cells; test: Death of cancer cells (summary statement); assay type: cell-based; conditions: summary of FIGS. 4, 5, 10, 11 (calcium malate, calcium di-malate) and FIGS. 6, 12 (calcium malate and DCA)
Description: as §2
(§3) 3×10^3 kidney cancer (Caki-1) or pancreatic cancer (Aspc-1) cells were incubated for 24 hours and then treated with CaMal2 of 0.5, 1, 2.5, or 5 mM and incubated for 96 hours again. Then, 3-(4,5-dimethylthiazol-2-yl)-2,5-diphenyltetrazolium bromide reagent of 10 μl was added to each well and reacted for 1 hour. After removing the reagent at the end of the reaction, DMSO 200 of μl was added to each well and the absorbance was measured to confirm the survival rate of the cells.
3×10^3 liver cancer (HepG2), lung cancer (H1975), pancreatic cancer (Aspc-1), or breast cancer (MDA-MB-231) cells were cultured for 24 hours and then treated with CaMal-DCA of 0.5, 1, 2.5, or 5 mM and incubated for another 96 hours. […] After removing the reagent at the end of the reaction, DMSO of 200 μl was added to each well and the absorbance was measured to confirm the survival rate of the cells.

[10] = tested on: kidney cancer (Caki-1) cells; test: Cancer cell survival rate (MTT reagent, absorbance); assay type: cell-based; conditions: 0.5, 1, 2.5, or 5 mM, 96 hours, p<0.001 vs lower-concentration groups (FIG. 5)
Description: as §3

[11] = tested on: pancreatic cancer (Aspc-1) cells; test: as above; assay type: cell-based; conditions: 0.5, 1, 2.5, or 5 mM, 96 hours, p<0.001 vs lower-concentration groups (FIGS. 5, 6)
Description: as §3
3×10^3 liver cancer (HepG2), lung cancer (H1975), pancreatic cancer (Aspc-1), or breast cancer (MDA-MB-231) cells were cultured for 24 hours and then treated with CaMal-DCA of 0.5, 1, 2.5, or 5 mM and incubated for another 96 hours. Then, 3-(4,5-dimethylthiazol-2-yl)-2,5-diphenyltetrazolium bromide reagent of 10 μl was added to each well and reacted for 1 hour. After removing the reagent at the end of the reaction, DMSO of 200 μl was added to each well and the absorbance was measured to confirm the survival rate of the cells.

[12] = tested on: liver cancer (HepG2) cells; test: Tumor growth inhibition in liver cancer xenograft mice; assay type: in vivo, Athymic Balb/c nude mice; conditions: 80 mg/kg orally five times a week; 30 days; vs untreated controls; p<0.001 (FIG. 11)
Description: 1×10^7 liver cancer (HepG2) cells were implanted with Athymic Balb/c nude mice and when they grew to approximately 200 mm^3, CaMal2 of 80 mg/kg was administered orally five times a week to observe tumor growth for 30 days.

[13] = HepG2, MDA-MB-231, H1975 cells, CaMal 5 mM, CaMal2 2.5 mM, CaMal-DCA 1 mM, 48 hours, vs untreated controls, p<0.001 (FIG. 1)
[14] = various cancer cell lines (FIG. 1), stated as activity

For `O=C(O)CC(O)C(=O)O` (stereo not drawn) [CaMal, calcium malate], the “amount of MDH2” value [1, 13] was “significant increase”, the “activity of MDH2” value [1, 14] was “significant increase” and the “amount of ME2” value [2, 13] was “significant increase”. For the same compound, the “activity of ME2 / malic enzymes” value [2, 14] was “significant increase”, the “amount of ME3” value [3, 13] was “significant increase” and the “activity of ME3 / malic enzymes” value [3, 14] was “significant increase”. For the same compound, the “levels of NAD^+” value [4] was “significant decrease”, the “levels of NAD^+” value ([4]; listed as calcium malate) was “dramatic exhaustion of NAD^+” and the insulin levels ([5]; absence of glucose, p<0.001 vs Control (No-glucose) (FIG. 3)) was “significant increase in insulin levels”. For the same compound, the insulin levels ([5]; presence of glucose 5 mM, p<0.001 vs Control (Glucose) (FIG. 3)) was “significant increase in insulin levels”, the “survival rate of the cancer cells” value [6] was “concentration-dependent manner decrease in a survival rate of the cancer cells” and the “survival rate of the cancer cells” value [7] was “concentration-dependent manner decrease in a survival rate of the cancer cells”. For the same compound, the tumor size [8] was “tumor size became reduced visually and clearly” and the “death of cancer cells” value [9] was “death of cancer cells”.
In the case of `O=C(O)CC(O)C(=O)O` (stereo not drawn) [CaMal2, calcium dimalate], the “levels of NAD^+” value ([4]; listed as calcium di-malate) was “dramatic exhaustion of NAD^+”, the “survival rate of the cancer cells” value [10] was “decreased the survival rate of the cancer cells in a concentration-dependent manner” and the “survival rate of the cancer cells” value [11] was “decreased the survival rate of the cancer cells in a concentration-dependent manner”. The tumor size [12] was “tumor size became reduced visually and clearly”.
